# Measured values published in patent publication US20230085307A1, “PYRIDAZINONE COMPOUND AND HERBICIDE” (NISSAN CHEMICAL CORPORATION, priority 2019, published 2023).
# How the values were obtained:
# barnyard grass [1] = assay: Test Example 3: herbicidal effect by foliage application, Wagner pot (Table 18, symbol H); assay type: in vivo, barnyard grass (Echinochloa crus-galli); conditions: 320 g/ha
# Outline: (§1)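 Plants were sown in alluvial soil held under 0.1–0.5 cm standing water and grown 14 days in a greenhouse at 25–30 °C. An emulsifiable formulation, water-diluted to the set dose, was then sprayed onto the foliage, and effects were scored three weeks later using previously defined criteria.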
# Chinese sprangletop = assay: Test Example 3: herbicidal effect by foliage application, Wagner pot (Table 18, symbol D); assay type: in vivo, chinese sprangletop (Leptochloa chinensis); conditions: 320 g/ha
# Outline: as §1
# rice flat sedge = assay: Test Example 3: herbicidal effect by foliage application, Wagner pot (Table 18, symbol E); assay type: in vivo, rice flat sedge (Cyperus iria); conditions: 320 g/ha
# Outline: as §1
# southern crabgrass [2] = assay: Test Example 4: herbicidal effect by soil treatment (Table 19, symbol F); assay type: in vivo, southern crabgrass (Digitaria ciliaris); conditions: amount of applied herbicide 320 g/ha
# Outline: (§2)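 Emulsion of test compound, water-diluted to predetermined amount, sprayed on soil after sowing (seed depth ~1.5 cm, sterilized diluvial soil). Greenhouse, 25–30° C. Effect graded at three weeks post-spray.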
# green foxtail [3] = assay: Test Example 4: herbicidal effect by soil treatment (Table 19, symbol G); assay type: in vivo, green foxtail (Setaria viridis); conditions: amount of applied herbicide 320 g/ha
# Outline: as §2
# barnyard grass [4] = assay: Test Example 4: herbicidal effect by soil treatment (Table 19, symbol H); assay type: in vivo, barnyard grass (Echinochloa crus-galli); conditions: amount of applied herbicide 320 g/ha
# Outline: as §2
# wild oat [5] = assay: Test Example 4: herbicidal effect by soil treatment (Table 19, symbol I); assay type: in vivo, wild oat (Avena fatua); conditions: amount of applied herbicide 320 g/ha
# Outline: as §2
# blackgrass [6] = assay: Test Example 4: herbicidal effect by soil treatment (Table 19, symbol J); assay type: in vivo, blackgrass (Alopecurus myosuroides); conditions: amount of applied herbicide 320 g/ha
# Outline: as §2
# Italian ryegrass [7] = assay: Test Example 4: herbicidal effect by soil treatment (Table 19, symbol K); assay type: in vivo, Italian ryegrass (Lolium multiflorum); conditions: amount of applied herbicide 320 g/ha
# Outline: as §2
# windgrass [8] = assay: Test Example 4: herbicidal effect by soil treatment (Table 19, symbol L); assay type: in vivo, windgrass (Apera spica-venti); conditions: amount of applied herbicide 320 g/ha
# Outline: as §2
# velvetleaf [9] = assay: Test Example 4: herbicidal effect by soil treatment (Table 19, symbol M); assay type: in vivo, velvetleaf (Abutilon theophrasti); conditions: amount of applied herbicide 320 g/ha
# Outline: as §2
# redroot pigweed [10] = assay: Test Example 4: herbicidal effect by soil treatment (Table 19, symbol N); assay type: in vivo, redroot pigweed (Amaranthus retroflexus); conditions: amount of applied herbicide 320 g/ha
# Outline: as §2
# lambsquarters [11] = assay: Test Example 4: herbicidal effect by soil treatment (Table 19, symbol O); assay type: in vivo, lambsquarters (Chenopodium album); conditions: amount of applied herbicide 320 g/ha
# Outline: as §2
# chickweed [12] = assay: Test Example 4: herbicidal effect by soil treatment (Table 19, symbol P); assay type: in vivo, common chickweed (Stellaria media); conditions: amount of applied herbicide 320 g/ha
# Outline: as §2
# persian speedwell [13] = assay: Test Example 4: herbicidal effect by soil treatment (Table 19, symbol R); assay type: in vivo, Persian speedwell (Veronica persica); conditions: amount of applied herbicide 320 g/ha
# Outline: as §2
# southern crabgrass [14] = assay: Test Example 5: herbicidal effect by foliage application, plastic box (Table 20, symbol F); assay type: in vivo, southern crabgrass (Digitaria ciliaris); conditions: 320 g/ha, foliage application after 14-day growth, evaluated three weeks after application
# Outline: (§3)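 Post-emergence foliar test in sterilized diluvial soil. Compound applied as water-diluted emulsion at a predetermined rate to 14-day-old plants; evaluation at three weeks.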
# green foxtail [15] = assay: Test Example 5: herbicidal effect by foliage application, plastic box (Table 20, symbol G); assay type: in vivo, green foxtail (Setaria viridis); conditions: 320 g/ha, foliage application after 14-day growth, evaluated three weeks after application
# Outline: as §3
# barnyard grass [16] = assay: Test Example 5: herbicidal effect by foliage application, plastic box (Table 20, symbol H); assay type: in vivo, barnyard grass (Echinochloa crus-galli); conditions: 320 g/ha, foliage application after 14-day growth, evaluated three weeks after application
# Outline: as §3
# wild oat [17] = assay: Test Example 5: herbicidal effect by foliage application, plastic box (Table 20, symbol I); assay type: in vivo, wild oat (Avena fatua); conditions: 320 g/ha, foliage application after 14-day growth, evaluated three weeks after application
# Outline: as §3
# blackgrass [18] = assay: Test Example 5: herbicidal effect by foliage application, plastic box (Table 20, symbol J); assay type: in vivo, blackgrass (Alopecurus myosuroides); conditions: 320 g/ha, foliage application after 14-day growth, evaluated three weeks after application
# Outline: as §3
# Italian ryegrass [19] = assay: Test Example 5: herbicidal effect by foliage application, plastic box (Table 20, symbol K); assay type: in vivo, Italian ryegrass (Lolium multiflorum); conditions: 320 g/ha, foliage application after 14-day growth, evaluated three weeks after application
# Outline: as §3
# windgrass [20] = assay: Test Example 5: herbicidal effect by foliage application, plastic box (Table 20, symbol L); assay type: in vivo, windgrass (Apera spica-venti); conditions: 320 g/ha, foliage application after 14-day growth, evaluated three weeks after application
# Outline: as §3
# velvetleaf [21] = assay: Test Example 5: herbicidal effect by foliage application, plastic box (Table 20, symbol M); assay type: in vivo, velvetleaf (Abutilon theophrasti); conditions: 320 g/ha, foliage application after 14-day growth, evaluated three weeks after application
# Outline: as §3
# redroot pigweed [22] = assay: Test Example 5: herbicidal effect by foliage application, plastic box (Table 20, symbol N); assay type: in vivo, redroot pigweed (Amaranthus retroflexus); conditions: 320 g/ha, foliage application after 14-day growth, evaluated three weeks after application
# Outline: as §3
# lambsquarters [23] = assay: Test Example 5: herbicidal effect by foliage application, plastic box (Table 20, symbol O); assay type: in vivo, lambsquarters (Chenopodium album); conditions: 320 g/ha, foliage application after 14-day growth, evaluated three weeks after application
# Outline: as §3
# chickweed [24] = assay: Test Example 5: herbicidal effect by foliage application, plastic box (Table 20, symbol P); assay type: in vivo, common chickweed (Stellaria media); conditions: 320 g/ha, foliage application after 14-day growth, evaluated three weeks after application
# Outline: as §3
# persian speedwell [25] = assay: Test Example 5: herbicidal effect by foliage application, plastic box (Table 20, symbol R); assay type: in vivo, Persian speedwell (Veronica persica); conditions: 320 g/ha, foliage application after 14-day growth, evaluated three weeks after application
# Outline: as §3
Compound,herbicidal effect on barnyard grass (H) (barnyard grass [1]),herbicidal effect on Chinese sprangletop (D) (Chinese sprangletop),herbicidal effect on rice flat sedge (E) (rice flat sedge),"Herbicidal effect by soil treatment, F: southern crabgrass (southern crabgrass [2])","Herbicidal effect by soil treatment, G: green foxtail (green foxtail [3])","Herbicidal effect by soil treatment, H: barnyard grass (barnyard grass [4])","Herbicidal effect by soil treatment, I: wild oat (wild oat [5])","Herbicidal effect by soil treatment, J: blackgrass (blackgrass [6])","Herbicidal effect by soil treatment, K: Italian ryegrass (Italian ryegrass [7])","Herbicidal effect by soil treatment, L: windgrass (windgrass [8])","Herbicidal effect by soil treatment, M: velvetleaf (velvetleaf [9])","Herbicidal effect by soil treatment, N: redroot pigweed (redroot pigweed [10])","Herbicidal effect by soil treatment, O: lambsquarters (lambsquarters [11])","Herbicidal effect by soil treatment, P: chickweed (chickweed [12])","Herbicidal effect by soil treatment, R: persian speedwell (persian speedwell [13])",herbicidal effect on F: southern crabgrass (evaluation grade 0-5) (southern crabgrass [14]),herbicidal effect on G: green foxtail (evaluation grade 0-5) (green foxtail [15]),herbicidal effect on H: barnyard grass (evaluation grade 0-5) (barnyard grass [16]),herbicidal effect on I: wild oat (evaluation grade 0-5) (wild oat [17]),herbicidal effect on J: blackgrass (evaluation grade 0-5) (blackgrass [18]),also measured
Cc1nn(C)c(=O)c(-c2c(-c3ccccc3)sc3c(Cl)cccc23)c1O [4-056],4 (Herbicidal rate of 70% or more and less than 90%),4 (Herbicidal rate of 70% or more and less than 90%),4 (Herbicidal rate of 70% or more and less than 90%),0 (Herbicidal rate of 5% or less (almost no effect)),0 (Herbicidal rate of 5% or less (almost no effect)),0 (Herbicidal rate of 5% or less (almost no effect)),0 (Herbicidal rate of 5% or less (almost no effect)),0 (Herbicidal rate of 5% or less (almost no effect)),0 (Herbicidal rate of 5% or less (almost no effect)),3 (Herbicidal rate of 40% or more and less than 70%),0 (Herbicidal rate of 5% or less (almost no effect)),0 (Herbicidal rate of 5% or less (almost no effect)),0 (Herbicidal rate of 5% or less (almost no effect)),3 (Herbicidal rate of 40% or more and less than 70%),0 (Herbicidal rate of 5% or less (almost no effect)),2 (Herbicidal rate of 20% or more and less than 40%),1 (Herbicidal rate of 5% or more and less than 20%),3 (Herbicidal rate of 40% or more and less than 70%),4 (Herbicidal rate of 70% or more and less than 90%),4 (Herbicidal rate of 70% or more and less than 90%),herbicidal effect on K: Italian ryegrass (evaluation grade 0-5) (Italian ryegrass [19]): 4 (Herbicidal rate of 70% or more and less than 90%); herbicidal effect on L: windgrass (evaluation grade 0-5) (windgrass [20]): 5 (Herbicidal rate of 90% or more (almost completely withered)); herbicidal effect on M: velvetleaf (evaluation grade 0-5) (velvetleaf [21]): 5 (Herbicidal rate of 90% or more (almost completely withered)); herbicidal effect on N: redroot pigweed (evaluation grade 0-5) (redroot pigweed [22]): 5 (Herbicidal rate of 90% or more (almost completely withered)); herbicidal effect on O: lambsquarters (evaluation grade 0-5) (lambsquarters [23]): 3 (Herbicidal rate of 40% or more and less than 70%); herbicidal effect on P: chickweed (evaluation grade 0-5) (chickweed [24]): 5 (Herbicidal rate of 90% or more (almost completely withered)); herbicidal effect on R: persian speedwell (evaluation grade 0-5) (persian speedwell [25]): 5 (Herbicidal rate of 90% or more (almost completely withered))
CCCCOc1cccc(-c2sc3c(Cl)cccc3c2-c2c(O)c(C)nn(C)c2=O)c1 [4-068],4 (Herbicidal rate of 70% or more and less than 90%),3 (Herbicidal rate of 40% or more and less than 70%),3 (Herbicidal rate of 40% or more and less than 70%),0 (Herbicidal rate of 5% or less (almost no effect)),0 (Herbicidal rate of 5% or less (almost no effect)),0 (Herbicidal rate of 5% or less (almost no effect)),0 (Herbicidal rate of 5% or less (almost no effect)),0 (Herbicidal rate of 5% or less (almost no effect)),0 (Herbicidal rate of 5% or less (almost no effect)),0 (Herbicidal rate of 5% or less (almost no effect)),0 (Herbicidal rate of 5% or less (almost no effect)),3 (Herbicidal rate of 40% or more and less than 70%),0 (Herbicidal rate of 5% or less (almost no effect)),0 (Herbicidal rate of 5% or less (almost no effect)),0 (Herbicidal rate of 5% or less (almost no effect)),0 (Herbicidal rate of 5% or less (almost no effect)),0 (Herbicidal rate of 5% or less (almost no effect)),0 (Herbicidal rate of 5% or less (almost no effect)),0 (Herbicidal rate of 5% or less (almost no effect)),0 (Herbicidal rate of 5% or less (almost no effect)),herbicidal effect on K: Italian ryegrass (evaluation grade 0-5) (Italian ryegrass [19]): 0 (Herbicidal rate of 5% or less (almost no effect)); herbicidal effect on L: windgrass (evaluation grade 0-5) (windgrass [20]): 0 (Herbicidal rate of 5% or less (almost no effect)); herbicidal effect on M: velvetleaf (evaluation grade 0-5) (velvetleaf [21]): 0 (Herbicidal rate of 5% or less (almost no effect)); herbicidal effect on N: redroot pigweed (evaluation grade 0-5) (redroot pigweed [22]): 2 (Herbicidal rate of 20% or more and less than 40%); herbicidal effect on O: lambsquarters (evaluation grade 0-5) (lambsquarters [23]): 0 (Herbicidal rate of 5% or less (almost no effect)); herbicidal effect on P: chickweed (evaluation grade 0-5) (chickweed [24]): 5 (Herbicidal rate of 90% or more (almost completely withered)); herbicidal effect on R: persian speedwell (evaluation grade 0-5) (persian speedwell [25]): 5 (Herbicidal rate of 90% or more (almost completely withered))
